Key:
[1] = system: cells that express alkaline phosphatase (rat bone marrow MSC); assay: Alkaline phosphatase expression by MSC in osteogenic medium; format: cell-based, Sprague Dawley rats; details: osteogenic medium 4 days, absorbance at 405 nm
Excerpt: Mesenchymal stem cells isolated from bone marrow and grown under appropriate conditions can express characteristics of multiple cell types, including cells involved in the generation of bone, cartilage, muscle and tendons. Osteogenic cells (cells that can form bone tissue) express the enzyme alkaline phosphatase when cultured in medium that drives them toward their osteogenic differentiation.
Bone marrow from female Sprague Dawley rats were harvested by flushing the femur with medium. The cells were placed in culture dishes 9 […], allowed to adhere overnight, and then placed in DMEM-LG medium containing antibiotics and 10% fetal calf serum together with varying concentrations of AII. At various times after culture initiation, the cells were washed with Tyrode's buffer and placed in osteogenic medium (DMEM-LG containing 10% fetal calf serum, 100 nM dexamethasone and 0.05 mM ascorbic acid) for 4 days prior to assessment of the level of alkaline phosphatase activity per well. Briefly, the wells were washed with Tyrode's buffer and 1 ml alkaline phosphatase substrate solution (50 mM glycine, pH 10.5, containing 1 mM magnesium chloride and 2.5 mM p-nitrophenyl phosphate) to each well. […] The absorbance of the resultant mixture at 405 nm was then determined via spectroscopy. The level of alkaline phosphatase activity is expressed as the level of absorbance per culture dish.

[2] = system: AT2 receptor; details: cited from earlier work
[3] = system: chick chorioallantoic membrane; details: in vivo; cited from earlier work
[4] = system: murine peritoneal macrophages; assay: Respiratory burst (hydrogen peroxide generation), murine peritoneal macrophages; format: cell-based; details: alone and in response to PMA 10 ng/ml; 4 hours exposure
Description: The respiratory burst of leukocytes (macrophages and polymorphonuclear neutrophils) is one component of the mediator system used to kill bacteria. As with phagocytosis, the level of this respiratory burst activity in resident macrophages is low. […] Studies were conducted to assess the effect of in vitro exposure of murine or rat peritoneal macrophages and human peripheral blood mononuclear cells (PBMC) to various concentrations of AII on the capacity to generate hydrogen peroxide via the respiratory burst system. For the human studies, five different donors were examined.
The murine or rat peritoneal cells were harvested by lavage with 5-15 ml of cold PBS with 0.5% bovine serum albumin. The human PBMC were harvested by venipuncture from normal human volunteers and isolated from peripheral blood by Ficoll Hypaque density centrifugation. After isolation, the cells were resuspended at 1×10^6 cells/ml and placed at 100 μl per well into 96 well plates. The cells were incubated with various concentrations of AII or AII analogues for 4 hours at 37° C. The cells were then preloaded with a fluorescent probe for hydrogen peroxide, 2,7 dichlorofluorescein acetate, which is nonfluorescent in the absence of hydrogen peroxide. […] One hour after stimulation the level of fluorescence produced was measured on a Cytofluor 2350 multiwell fluorometer.

[5] = system: rat MSC; assay: Rat mesenchymal stem cell proliferation in bone marrow culture; format: cell-based, Sprague Dawley rats; details: 1 to 100 μg/ml, in presence of serum
Description: These studies were conducted to determine the effect that AII would have on the proliferation of MSC. Bone marrow cells were harvested from the femur and tibia of female Sprague Dawley rats by flushing the bones with Dulbecco's Minimal Essential Medium-High Glucose (“DMEM-HG”) with a syringe and an 18 gauge needle. These cells were cultured in 24 well plates at 5×10^3 cells/mm^2 in DMEM-HG containing selected lots of fetal calf serum (FCS) and antibiotics (complete medium) at 37° C. incubator containing 5% CO2 in air. Twenty-four hours after the initiation of the cultures the medium and nonadherent cells were aspirated and fresh medium was added. To each of these several wells, complete medium with (1 to 100 μg/ml) or without AII was added. The migration of cells from the clones and their proliferation was followed by microscopic examination. Every 4 days the old medium was removed and fresh medium was added to the cultures. These studies were conducted to determine the effect that inclusion of AII analogues and fragments in the cell culture of MSC would have on the proliferation of these cells. Bone marrow cells were harvested from the femur and tibia of female Sprague Dawley rats by flushing the bones with Dulbecco's Minimal Essential Medium-High Glucose (“DMEM-HG”) with a syringe and an 18 gauge needle. […]

For “Asp-Arg-Val-Tyr-Ile-His-Pro-Phe [AII, known pressor agent, commercially available]”, the “proliferation of cells that express alkaline phosphatase” value [1] is listed as “can accelerate the proliferation of cells that express alkaline phosphatase”, the “affinity for AT2 than AT1” value [2] is listed as 100 times and the angiogenic activity [3] is listed as “angiogenic”. For the same substance, the “ability to generate hydrogen peroxide (respiratory burst)” value [4] was “increased the ability of leukocytes to generate hydrogen peroxide”, the “number of sites from which the MSC were migrating (CFU)” value [5] was “significantly increased” and the “size (number of cells) of the colonies formed” value [5] was “significantly increased”.

— patent publication US7744927B2, “Methods of promoting hematopoietic and mesenchymal cell proliferation and differentiation” (University of Southern California, priority 1997, dated 2010)
